In brackets after ≈: the same amount, converted by molar mass.
Legend:
[1] = test system: IL-10 production of LPS-activated monocytes; test: Increase in IL-10 production of LPS-activated human monocytes (sandwich ELISA of culture supernatants); type: cell-based; conditions: human CD14-positive monocytes, 1 h preincubation with test substance, 10 μg/ml LPS from E. coli, 24 hours; for EC200: Monocyte
Description: (§1) Stimulation of human monocytes with lipopolysaccharide for secretion of IL-10 and IL-12:
(§2) Human monocytes were isolated from peripheral blood mononuclear cells (PBMC), which were obtained from heparinized whole blood by means of a Ficoll density gradient centrifugation. For this, the PBMC were incubated with a monoclonal antibody which is directed against the monocyte-specific surface molecule CD14 and to which superparamagnetic microbeads (Miltenyi Biotech, Bergisch Gladbach) are coupled. For positive selection of the labelled monocytes from the cell mixture of the PBMC, the entire cell suspension was applied to a column with a ferromagnetic carrier matrix and this was placed in a magnetic field. The cells loaded with microbeads were thereby bound to the carrier matrix, and non-labelled cells passed through the column and were discarded. After removing the matrix from the magnetic field, the antibody-laden cells were eluted by rinsing the now demagnetized column with buffer. The purity of this CD14-positive monocyte population obtained in this way is about 95-98%. These monocytes were incubated in a density of 10^6 cells/ml of culture medium (RPMI, supplemented with 10% foetal calf serum) with the test substances, dissolved in DMSO, at 37° C. and 5% CO2 for one hour. 10 μg/ml of LPS from E. coli were then added. After 24 hours, cell-free culture supernatants were taken and tested for the content of IL-10 and IL-12.
(§3) The concentration of IL-12 and IL-10 in the cell culture supernatants was determined by means of sandwich ELISAs using two anti-IL-12 and, respectively, IL-10 monoclonal antibodies (Biosource Europe, Fleurus, Belgium). A reference standard curve with human IL-10 and, respectively, IL-12 was included. The detection limit of the ELISAs was 15 pg/ml.

[2] = test system: IL-12 production of LPS-activated monocytes; test: Inhibition of IL-12 production of LPS-activated human monocytes (sandwich ELISA of culture supernatants); type: cell-based; conditions: human CD14-positive monocytes, 1 h preincubation with test substance, 10 μg/ml LPS from E. coli, 24 hours; for IC50: Monocyte
Description: as §1, §2, §3

melting point | SMILES | other results
154 to 156 °C | CCCCCOc1cccc2c1CN(C1CC(=O)NC1=O)C(C)=N2 (stereo not drawn) [Example 15q, 3-(2-methyl-5-pentyloxy-4H-quinazolin-3-yl)-pyrrolidine-2,5-dione] | –
191 to 192 °C | CC(C)Oc1cccc2c1CN(C1CC(=O)NC1=O)C=N2 (stereo not drawn) [Example 12e, 3-(5-isopropoxy-4H-quinazolin-3-yl)-pyrrolidine-2,5-dione] | –
194 °C | O=C1CC(N2C=Nc3c(Cl)cccc3C2)C(=O)N1 (stereo not drawn) [Example 8j, 3-(8-chloro-4H-quinazolin-3-yl)-pyrrolidine-2,5-dione] | –
163 to 164 °C | CN1C(=O)CC(N2C=Nc3ccccc3C2)C1=O (stereo not drawn) [Example 11d, 1-methyl-3-(4H-quinazolin-3-yl)-pyrrolidine-2,5-dione] | –
205 to 206 °C | CC1=Nc2cc(C(F)(F)F)ccc2CN1C1CC(=O)NC1=O (stereo not drawn) [Example 15aa, 3-(2-methyl-7-trifluoromethyl-4H-quinazolin-3-yl)-pyrrolidine-2,5-dione] | –
– | O=C1CCC(N2C(=O)c3ccccc3C2=O)C(=O)N1 (stereo not drawn) [Thalidomide, thalidomide, reference compound] | EC200 [1]: 20 µg/mL; IC50 [2]: 0.07 µg/mL (≈ 0.271 µM)
130 to 133 °C | CCOc1cccc2c1CN(C1CC(=O)NC1=O)C(C)=N2 (stereo not drawn) [Example 15k, 3-(5-ethoxy-2-methyl-4H-quinazolin-3-yl)-pyrrolidine-2,5-dione] | –
122 °C | COc1cccc2c1CN(C1CC(=O)NC1=O)C(C)=N2 (stereo not drawn) [Example 15o, 3-(5-methoxy-2-methyl-4H-quinazolin-3-yl)-pyrrolidine-2,5-dione] | –
174 to 178 °C | O=C1CC(N2C=Nc3ccc(Cl)c(Cl)c3C2)C(=O)N1 (stereo not drawn) [Example 9a, 3-(5,6-dichloro-4H-quinazolin-3-yl)-pyrrolidine-2,5-dione] | –
161 to 166 °C | CC1=Nc2ccc(Cl)c(Cl)c2CN1C1CC(=O)NC1=O (stereo not drawn) [Example 15c, 3-(5,6-dichloro-2-methyl-4H-quinazolin-3-yl)-pyrrolidine-2,5-dione] | –
154 to 160 °C | CCCCCOc1cccc2c1CN(C1CC(=O)NC1=O)C=N2 (stereo not drawn) [Example 12c, 3-(5-pentyloxy-4H-quinazolin-3-yl)-pyrrolidine-2,5-dione] | –
195 to 203 °C | CC1=Nc2ccc(Cl)cc2CN1C1CC(=O)NC1=O (stereo not drawn) [Example 15y, 3-(6-chloro-2-methyl-4H-quinazolin-3-yl)-pyrrolidine-2,5-dione] | –
212 to 225 °C | O=C1CC(N2C=Nc3cc([N+](=O)[O-])ccc3C2)C(=O)N1 (stereo not drawn) [Example 8h, 3-(7-nitro-4H-quinazolin-3-yl)-pyrrolidine-2,5-dione] | –
– | COc1cccc2c1CN(C1CC(=O)NC1=O)C=N2 (stereo not drawn) [Example 12a, 3-(5-methoxy-4H-quinazolin-3-yl)-pyrrolidine-2,5-dione] | EC200 [1]: > 50 µg/mL; IC50 [2]: 1.8 µg/mL (≈ 6.94 µM)
191 to 193 °C | CN1C(=O)CC(N2C=Nc3cc(F)ccc3C2)C1=O (stereo not drawn) [Example 11e, 7-fluoro-1-methyl-3-(4H-quinazolin-3-yl)-pyrrolidine-2,5-dione] | –
288 to 290 °C | COCCOc1cccc2c1CN(C1CC(=O)NC1=O)C=N2 (stereo not drawn) [Example 12f, 3-(5-(2-methoxyethoxy)-4H-quinazolin-3-yl)-pyrrolidine-2,5-dione] | –
– | O=C1CC(N2C=Nc3cc4ccccc4cc3C2)C(=O)N1 (stereo not drawn) [Example 8c, 3-(4H-benzo[q]quinazolin-3-yl)-pyrrolidine-2,5-dione] | Increase in IL-10 production EC200 [1]: >50000 ng/mL; Inhibition of IL-12 production IC50 [2]: 4 µg/mL
176 to 178 °C | CC1=Nc2c(Cl)cccc2CN1C1CC(=O)NC1=O (stereo not drawn) [Example 15hh, 3-(8-chloro-2-methyl-4H-quinazolin-3-yl)-pyrrolidine-2,5-dione] | –
200 to 202 °C | COc1cc2c(cc1OC)N=C(C)N(C1CC(=O)NC1=O)C2 (stereo not drawn) [Example 15v, 3-(6,7-dimethoxy-2-methyl-4H-quinazolin-3-yl)-pyrrolidine-2,5-dione] | –
– | O=C1CC(N2C=Nc3cc(F)cc(F)c3C2)C(=O)N1 (stereo not drawn) [Example 4, 3-(5,7-difluoro-4H-quinazolin-3-yl)-pyrrolidine-2,5-dione] | EC200 [1]: 0.62 µg/mL; IC50 [2]: 0.107 µg/mL (≈ 0.403 µM)
– | O=C1CC(N2C=Nc3cc(Cl)cc(F)c3C2)C(=O)N1 (stereo not drawn) [Example 2, 3-(7-chloro-5-fluoro-4H-quinazolin-3-yl)-pyrrolidine-2,5-dione] | EC200 [1]: 1 µg/mL; IC50 [2]: 1.4 µg/mL (≈ 4.97 µM)

melting point | SMILES | other results
195 to 200 °C | COc1cccc2c1N=CN(C1CC(=O)NC1=O)C2 (stereo not drawn) [Example 8k, 3-(8-methoxy-4H-quinazolin-3-yl)-pyrrolidine-2,5-dione] | –
203 to 210 °C | CC1=Nc2cc([N+](=O)[O-])ccc2CN1C1CC(=O)NC1=O (stereo not drawn) [Example 15ee, 3-(2-methyl-7-nitro-4H-quinazolin-3-yl)-pyrrolidine-2,5-dione] | –
132 to 143 °C | CC1=Nc2ccc(OCc3ccccc3)cc2CN1C1CC(=O)NC1=O (stereo not drawn) [Example 15x, 3-(6-benzyloxy-2-methyl-4H-quinazolin-3-yl)-pyrrolidine-2,5-dione] | –
106 to 110 °C | CC1=Nc2cc3ccccc3cc2CN1C1CC(=O)NC1=O (stereo not drawn) [Example 15t, 3-(2-methyl-4H-benzo[g]quinazolin-3-yl)-pyrrolidine-2,5-dione] | –
145 to 150 °C | CC1=Nc2c(Br)cc(C)cc2CN1C1CC(=O)NC1=O (stereo not drawn) [Example 15ff, 3-(8-bromo-2,6-dimethyl-4H-quinazolin-3-yl)-pyrrolidine-2,5-dione] | –
– | O=C1CC(N2C=Nc3cccc([N+](=O)[O-])c3C2)C(=O)N1 (stereo not drawn) [Example 14, 3-(5-nitro-4H-quinazolin-3-yl)-pyrrolidine-2,5-dione] | EC200 [1]: 20 µg/mL; IC50 [2]: 5.71 µg/mL (≈ 20.8 µM)
171 to 173 °C | O=C1CC(N2C=Nc3ccc(OCc4ccccc4)cc3C2)C(=O)N1 (stereo not drawn) [Example 8l, 3-(6-benzyloxy-4H-quinazolin-3-yl)-pyrrolidine-2,5-dione] | –
180 to 182 °C | CC1=Nc2c(Cl)cc(Cl)cc2CN1C1CC(=O)NC1=O (stereo not drawn) [Example 15w, 3-(6,8-dichloro-2-methyl-4H-quinazolin-3-yl)-pyrrolidine-2,5-dione] | –
203 to 205 °C | CCOc1cccc2c1CN(C1CC(=O)NC1=O)C=N2 (stereo not drawn) [Example 12b, 3-(5-ethoxy-4H-quinazolin-3-yl)-pyrrolidine-2,5-dione] | –
189 to 200 °C | COc1cc2c(cc1OC)N=CN(C1CC(=O)NC1=O)C2 (stereo not drawn) [Example 10b, 3-(6,7-dimethoxy-4H-quinazolin-3-yl)-pyrrolidine-2,5-dione] | –
240 to 241 °C | Cc1cc(Br)c2c(c1)CN(C1CC(=O)NC1=O)C=N2 (stereo not drawn) [Example 8i, 3-(8-bromo-6-methyl-4H-quinazolin-3-yl)-pyrrolidine-2,5-dione] | –
168 to 172 °C | O=C1CC(N2C=Nc3ccc([N+](=O)[O-])cc3C2)C(=O)N1 (stereo not drawn) [Example 8f, 3-(6-nitro-4H-quinazolin-3-yl)-pyrrolidine-2,5-dione] | –
186 to 191 °C | CC1=Nc2c(Cl)ccc(Cl)c2CN1C1CC(=O)NC1=O (stereo not drawn) [Example 15f, 3-(5,8-dichloro-2-methyl-4H-quinazolin-3-yl)-pyrrolidine-2,5-dione] | –
> 260 °C (dec.) | CC1=Nc2cccc([N+](=O)[O-])c2CN1C1CC(=O)NC1=O (stereo not drawn) [Example 15p, 3-(2-methyl-5-nitro-4H-quinazolin-3-yl)-pyrrolidine-2,5-dione] | –
199 to 201 °C | CC1=Nc2cc(Cl)cc(Cl)c2CN1C1CC(=O)NC1=O (stereo not drawn) [Example 15d, 3-(5,7-dichloro-2-methyl-4H-quinazolin-3-yl)-pyrrolidine-2,5-dione] | –
116 to 119 °C | CC1=Nc2cccc(OC(C)C)c2CN1C1CC(=O)NC1=O (stereo not drawn) [Example 15m, 3-(5-isopropoxy-2-methyl-4H-quinazolin-3-yl)-pyrrolidine-2,5-dione] | –
100 to 108 °C | O=C1CC(N2C=Nc3cccc(OCc4ccccc4)c3C2)C(=O)N1 (stereo not drawn) [Example 12d, 3-(5-benzyloxy-4H-quinazolin-3-yl)-pyrrolidine-2,5-dione] | –
230 to 232 °C | O=C1CC(N2C=Nc3c(Cl)cc(Cl)cc3C2)C(=O)N1 (stereo not drawn) [Example 8e, 3-(6,8-dichloro-4H-quinazolin-3-yl)-pyrrolidine-2,5-dione] | –
188 to 190 °C | O=C1CC(N2C=Nc3c(cccc3C(F)(F)F)C2)C(=O)N1 (stereo not drawn) [Example 11c, 3-(8-trifluoromethyl-4H-quinazolin-3-yl)-pyrrolidine-2,5-dione] | –
170 to 175 °C | CC1=Nc2ccc([N+](=O)[O-])cc2CN1C1CC(=O)NC1=O (stereo not drawn) [Example 15z, 3-(2-methyl-6-nitro-4H-quinazolin-3-yl)-pyrrolidine-2,5-dione] | –
200 to 201 °C | CC1=Nc2cccc(C)c2CN1C1CC(=O)NC1=O (stereo not drawn) [Example 15n, 3-(2,5-dimethyl-4H-quinazolin-3-yl)-pyrrolidine-2,5-dione] | –

Reference: US20080293749A1, “Pyrrolidine(thi)ones Substituted by Heterocyclic Substituents in The 3-Position” (Gruenenthal GmbH, priority 2005, published 2008)
